The values that follow are results of earlier work, collected in patent US5028528A, “Analytical element for theophylline determination using buffer in a subbing zone” (Eastman Kodak Company, priority 1988, dated 1991).

For this series the following is noted: in a patient.

Consider `Cn1c(=O)c2[nH]cnc2n(C)c1=O` [Theophylline], for which the “therapeutic range of use” value is 1 to 2 mg/dL.
